Results on two compounds are retold here after US7989495B2, “Compositions and methods for inhibiting NF-κB mediated tumorigenicity and adhesion dependent survival of cancer cells” (University of Utah Research Foundation, priority 2002, dated 2011).

The subject of one test is HT-29 xenografts. The test can be described thus: Subcutaneous colon cancer xenograft in athymic mice. Particulars: for tumor volumes, treatment group compared with control group: HT-29 subcutaneous tumors, 1 mg/kg twice weekly for 28 days, vs DMSO. It counts as in vivo. On the procedure: (§1) DLD-1, HCT-116, and HT-29 cells were cultured for 6 days in soft agar in the presence of DMSO (control), 10 μM BAY 11-7082, or 10 μM BAY 11-7085. The data points represent the means of colony counts per field (20×) performed in 5 different regions of the culture dishes. The data shown represent a typical result of two separate experiments. FIGS. 2B,C, show athymic mice received subcutaneous injections of HT-29 (B) or HCT-116 (C) cells, followed by […] of BAY 11-7085 (dark bars) or DMSO (white bars) intraperitoneally twice weekly. The bars represent the 25-75% ranges of the tumor volumes and the horizontal lines in the bars are the medians. Using the Kruskal-Wallace statistical test to compare the median tumor volumes between BAY 11-7085 and DMSO yielded a p-value of 0.005 for HT-29 cells but >0.05 for HCT-116 cells.
HT-29 and HCT-116 cells were harvested in 0.25% trypsin-PBS-EDTA, washed once in media and PBS, and resuspended in PBS at 1 million cells per 200 μL. One million cells were injected either subcutaneously in the backs or intraperitoneally in 5 week old female nu/nu athymic mice (Charles River Labs). For the mice with subcutaneous tumors, the tumors were allowed to establish themselves for 10 days after which they were randomized to BAY 11-7085 or DMSO. For the mice with intraperitoneal tumors, the mice received DMSO or BAY 11-7085 (5 mg/kg) 24 hours before the cancer cells were injected intrapentoneally. All mice received BAY 11-7085 (5 mg/kg) or an equal volume of DMSO (˜200 μL) twice weekly for 21-32 days. Subcutaneous tumor sizes were determined by measuring the length and width with calipers. These studies were approved by the U. of Utah Institutional Review Board and Institutional Animal Care and Use Committee and performed in the Animal Resource Center. Mice were euthanized when they experienced a greater than 10% loss in body weight or if they appeared ill. Post-mortem examinations included sectioning of kidney, lung, and liver tissues which were stained with hematoxylin and eosin followed by examination for tissue toxicity/damage by an experienced mouse pathologist (E.J.E.) who was blinded to therapy.
(Wang et al., 1999) However, BAY 11-7082 or BAY 11-7085 alone inhibit colon cancer xenograft growth in athymic mice. HC-116, and HT-29 cell lines were used to generate subcutaneous tumors in athymic female mice. The mice were subsequently randomized to be treated with vehicle (DMSO) alone or BAY 11-7085 1 mg/kg twice weekly for 28 days.

Test [1] has as its system TNFα-induced NF-κB activation. As to conditions: Pierce et al., 1997; cited from earlier work.
A further test has as its system DLD-1 cells. Briefly: Soft agar colony formation assay (anchorage-independent proliferation). Particulars: 10 μM, 6 days in soft agar. It is filed as cell-based. On the procedure: as §1
(§2) Anchorage-independent cell growth is a hallmark of cancer cells and is a good correlate to tumorigencity in vivo. Therefore, the effects of BAY 11-7082 and BAY 11-7085 were examined on colon cancer cell growth using the soft agar colony formation assay.

In the next test the test system is HT-29 cells. The test is described as above. As to conditions: 10 μM, 6 days in soft agar. It counts as cell-based. On the procedure: as §1, §2
The subject of test [2] is transiently suspended HT-29 cells. The test can be described thus: Apoptosis (annexin V) of transiently suspended cells allowed to readhere. It is filed as cell-based. On the procedure:
HT-29 cells that were either transiently suspended with trypsin-EDTA or adherent for three days, were treated at time zero with DMSO or 10-100 μM BAY 11-7085. The percent of apoptotic cells was determined using the annexin V flow cytometry assay and graphed versus the dose of BAY 11-7085. […] The cells were fixed and immunostained with an NF-κB p65 subunit monoclonal antibody.
The transiently suspended cells were lysed and allowed to bind to DNA oligonucleotides, containing the NF-κB consensus binding site, that were immobilized to 96-well plates. NF-κB protein bound to the oligonucleotides was detected by an antibody to the p65 subunit that only recognized p65 that is bound to DNA. The positive control was HeLa cells that were stimulated with TNFα A control was performed using excess free NF-κB oligonucleotides (Competitor). […] NF-κB binding activity was determined by the TransAM assay as in FIG. 5A. […] The data shown represent typical results of three separate experiments. […] An immunoblot for COX-2 was performed.
The percentage of apoptotic cells was determined using the annexin V assay. The data points represent the averages of three experiments; bars, ±SE. E. DLD-1 and F. HT-29 cells were transduced with an adenovirus containing the IκB super-repressor construct. After 3 days, the cells were transiently suspended and allowed to readhere in the presence of subapoptotic concentrations of BAY 11-7085 or DMSO (vehicle) for 8 h. The data are expressed as fractions of cells surviving compared with the controls (no adenovirus) and were quantitatively determined by staining the remaining adherent cells with crystal violet.
Single cell suspensions were plated at 100,000 cells per well in 24-well plates in media containing DMSO, BAY 11-7082, BAY 11-7085, or MG-132 for 8-24 hours in an incubator. Alternatively, DMSO, BAY 11-7082, BAY 11-7085, or MG-132 were added to cells that were confluent and adherent for several days. The nonadherent cells were aspirated off with the media and spun for 3 minutes at 2,000 rpm in 15 ml polypropylene tubes. The adherent cells were washed twice with PBS, dispersed in trypsin, and spun down for 3 minutes at 2,000 rpm in 15 ml polypropylene tubes. The nonadherent and adherent cells were resuspended in 1× binding buffer (10 mM HEPES/NaOH, pH 7.4, 140 mM NaCl, and 2.5 mM CaCl2) to a final concentration of 10^6 cells/ml. 100 μl of the cell solution were transferred to a 5 ml culture tube and incubated with 5 μl of annexin V-FITC-conjugated monoclonal antibody (Pharmingen) and 10 μl of propidium iodide (from a 50 μg/ml stock solution made in PBS) in the dark at 25° C. for 15 minutes. 400 μl of binding buffer was added to each tube and the cells were analyzed by flow cytometry immediately. The percent of apoptosis was determined as the percent of annexin V-positive, propidium iodide-negative cells of the total cells counted.
Various concentrations of BAY 11-7085 were added to HT-29 cells that were transiently suspended in trypsin-PBS for approximately 15 minutes before replating. The transiently suspended cells were quickly allowed to readhere in order to prevent anoikis. Alternatively, BAY 11-7085 was added to adherent HT-29 cell monolayers.

The next test relates to JNK/SAPK and p38. As to conditions: Pierce et al., 1997; cited from earlier work.

“Also recorded” adds a separate entry of the source. Where only a bound is given, the exact number is not on record here.

In the case of `Cc1ccc(S(=O)(=O)/C=C/C#N)cc1` [BAY 11-7082, (2E)-3-(tolysulfonyl)-2-propenenitrile], the “tumor volumes, treatment group compared with control group” value in the test on HT-29 xenografts is “reduce tumor volumes”. Also, the “effect on TNFα-induced NF-κB activation” value in test [1] is listed as “inhibit”. The “inhibition of anchorage-independent proliferation” value (“inhibition” for short) in the test on DLD-1 cells and in the test on HT-29 cells was “significantly inhibited” each time. In addition, the “share of transiently suspended, readhering cells that became apoptotic” value in test [2] (HT-29) is “vast majority”. In the test on JNK/SAPK and p38, the “effect on JNK/SAPK and p38” value is “activate JNK/SAPK and p38”.
As to `CC(C)(C)c1ccc(S(=O)(=O)/C=C/C#N)cc1` [BAY 11-7085, (2E)-3-[4-(tertiarybutylphenyl)sulfonyl]-2-propenenitrile], the “p-value, Kruskal-Wallace test of median tumor volumes vs DMSO” value with HT-29 xenografts (HT-29, intraperitoneally twice weekly) stood at 0.005. Also, in the test with HT-29 xenografts (1 mg/kg), the “tumor volumes, treatment group compared with control group” value is “statistically significant overall reduction in the tumor volumes; also recorded: reduce tumor volumes”. Further, in test [1], the “effect on TNFα-induced NF-κB activation” value was “inhibit”. The “inhibition” value in the test with DLD-1 cells was “significantly inhibited”. Besides, the “inhibition” value in the test on HT-29 cells was “significantly inhibited”. Further, in test [2] (HT-29), the “in vitro apoptotic threshold during readhesion” value was more than 20 µM and the “share of transiently suspended, readhering cells that became apoptotic” value is recorded as “vast majority”. Moreover, the “BAY 11-7085-induced apoptosis during readhesion” value in test [2] (HT-29, transiently suspended, treated, allowed to readhere 8 hours) is given as “showed the same propensity for BAY 11-7085-induced apoptosis”. Further, the “apoptosis of transiently suspended cells” value in test [2] (HT-29 suspended in trypsin about 15 minutes then replated, 10-100 μM) is “caused a significant increase in apoptosis”. Further, the “effect on JNK/SAPK and p38” value in the test on JNK/SAPK and p38 was “activate JNK/SAPK and p38”.
